In ChEMBL document CHEMBL1201862, “PubChem BioAssay data set” (2004):
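Assay format: 96-well plates, 48-hour exposure. GI50 is the concentration that inhibits growth by half.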 Activity calls are given as the source filed them. Cut-off read from the data, not from the text of the source: active = GI50 up to about 1.1 µM and inactive = higher.

How the values were obtained:
Experiment in all cases: NCI anticancer screen, dose series, 48 h
[1] = test system: A498
[2] = test system: A549
[3] = test system: ACHN
[4] = test system: CCRF-CEM
[5] = test system: DU-145
[6] = test system: HCT-116
[7] = test system: HCT-15
[8] = test system: K562
[9] = test system: KM12
[10] = test system: LOX IMVI
[11] = test system: Malme-3M
[12] = test system: NCI-H522
[13] = test system: OVCAR-4
[14] = test system: RPMI-8226
[15] = test system: SF-268
[16] = test system: SF-295
[17] = test system: SK-MEL-5
[18] = test system: SW-620
[19] = test system: U-251
[20] = test system: UACC-257

In the case of `CC(C)(C)c1ccc2c(c1)CNCCNCc1cc(C(C)(C)C)ccc1OCC1(CO2)COc2ccc(C(C)(C)C)cc2CNCCNCc2cc(C(C)(C)C)ccc2OC1`, the GI50 [1] was 0.857 µM (active), the GI50 [2] was 0.433 µM (active) and the GI50 [3] was 1.6 µM (inactive). For the same compound, the GI50 [4] was 0.2 µM (active), the GI50 [5] was 1.73 µM (inactive) and the GI50 [6] was 0.288 µM (active). For the same compound, the GI50 [7] was 0.931 µM, the GI50 [8] was 0.213 µM (active) and the GI50 [9] was 0.388 µM (active). For the same compound, the GI50 [10] was 0.243 µM (active), the GI50 [11] was 1.41 µM (inactive) and the GI50 [12] was 0.284 µM (active). For the same compound, the GI50 [13] was 1.53 µM (inactive), the GI50 [14] was 0.372 µM (active) and the GI50 [15] was 1.78 µM (inactive). The GI50 [16] was 0.968 µM (active), the GI50 [17] was 1.23 µM (inactive) and the GI50 [18] was 0.501 µM (active). The GI50 [19] was 0.242 µM (active) and the GI50 [20] was 1.54 µM (inactive).
In the case of `COC(=O)c1cc(C)n2c1CS[C@@H]2c1ccccc1`, the GI50 [1] was 27.4 µM (inactive), the GI50 [2] was 34.7 µM (inactive) and the GI50 [3] was 58.7 µM (inactive). The GI50 [4] was 41.4 µM (inactive), the GI50 [5] was 82 µM (inactive) and the GI50 [6] was 33.7 µM (inactive). For the same compound, the GI50 [7] was 27.5 µM, the GI50 [8] was 14.1 µM (inactive) and the GI50 [9] was 35.1 µM (inactive). The GI50 [10] was 40.1 µM (inactive), the GI50 [11] was 27.6 µM (inactive) and the GI50 [12] was 23.2 µM (inactive). For the same compound, the GI50 [13] was 36.8 µM (inactive), the GI50 [14] was 28.2 µM (inactive) and the GI50 [15] was 50.6 µM (inactive). For the same compound, the GI50 [16] was 30.7 µM (inactive), the GI50 [17] was 19.8 µM (inactive) and the GI50 [18] was 44.6 µM (inactive). The GI50 [19] was 32 µM (inactive) and the GI50 [20] was 47.9 µM (inactive).
For `O=C1C=C(OCCCCl)C(=O)c2c(O)ccc(O)c21`, the GI50 [1] was 2.13 µM (inactive), the GI50 [2] was 0.266 µM (active) and the GI50 [3] was 1.59 µM (inactive). The GI50 [4] was 0.661 µM (active), the GI50 [5] was 0.303 µM (active) and the GI50 [6] was 0.459 µM (active). For the same compound, the GI50 [7] was 0.422 µM, the GI50 [8] was 1.26 µM (inactive) and the GI50 [9] was 1.78 µM (inactive). For the same compound, the GI50 [10] was 0.256 µM (active), the GI50 [11] was 0.167 µM (active) and the GI50 [12] was 2.36 µM (inactive). The GI50 [13] was 1.25 µM (inactive), the GI50 [14] was 2.06 µM (inactive) and the GI50 [15] was 1.73 µM (inactive). For the same compound, the GI50 [16] was 0.82 µM (active), the GI50 [17] was 0.163 µM (active) and the GI50 [18] was 0.277 µM (active). The GI50 [19] was 2.01 µM (inactive) and the GI50 [20] was 0.176 µM (active).
For `CCN(CC)c1c(C(C)(C)C)c(=O)n2ccsc2c1OC(C)=O`, the GI50 [1] was 19.2 µM (inactive), the GI50 [2] was 15 µM (inactive) and the GI50 [3] was 16.2 µM (inactive). For the same compound, the GI50 [4] was 49 µM (inactive), the GI50 [5] was 19.9 µM (inactive) and the GI50 [6] was 13.6 µM (inactive). The GI50 [7] was 16.5 µM, the GI50 [8] was 17.6 µM (inactive) and the GI50 [9] was 15.5 µM (inactive). The GI50 [10] was 17.4 µM (inactive), the GI50 [11] was 12.5 µM (inactive) and the GI50 [12] was 13.4 µM (inactive). For the same compound, the GI50 [13] was 15.2 µM (inactive), the GI50 [14] was 13.8 µM (inactive) and the GI50 [15] was 15.2 µM (inactive). The GI50 [16] was 17.1 µM (inactive), the GI50 [17] was 18.1 µM (inactive) and the GI50 [18] was 16.9 µM (inactive). For the same compound, the GI50 [19] was 17 µM (inactive) and the GI50 [20] was 16.5 µM (inactive).
In the case of `COc1nc(N)nc2c1ncn2C1CC(O)C(CO)O1` (stereo not given), the GI50 [1] was > 100 µM (inactive), the GI50 [2] was > 100 µM (inactive) and the GI50 [3] was > 100 µM (inactive). For the same compound, the GI50 [4] was > 100 µM (inactive), the GI50 [5] was > 100 µM (inactive) and the GI50 [6] was > 100 µM (inactive). For the same compound, the GI50 [7] was greater than 100 µM, the GI50 [8] was > 100 µM (inactive) and the GI50 [9] was > 100 µM (inactive). For the same compound, the GI50 [10] was > 100 µM (inactive), the GI50 [11] was > 100 µM (inactive) and the GI50 [12] was > 100 µM (inactive). The GI50 [13] was > 100 µM (inactive), the GI50 [14] was > 100 µM (inactive) and the GI50 [15] was > 100 µM (inactive). For the same compound, the GI50 [16] was > 100 µM (inactive), the GI50 [17] was > 100 µM (inactive) and the GI50 [18] was > 100 µM (inactive). For the same compound, the GI50 [19] was > 100 µM (inactive) and the GI50 [20] was > 100 µM (inactive).
With `O=S(=O)(O)c1cccc2c(/N=N/c3c(O)ccc4ccccc34)cccc12` the GI50 [1] was > 100 µM (inactive), the GI50 [2] was > 100 µM (inactive) and the GI50 [3] was > 100 µM (inactive). The GI50 [4] was > 100 µM (inactive), the GI50 [5] was > 100 µM (inactive) and the GI50 [6] was > 100 µM (inactive). For the same compound, the GI50 [7] was greater than 100 µM, the GI50 [8] was > 100 µM (inactive) and the GI50 [9] was > 100 µM (inactive). For the same compound, the GI50 [10] was > 100 µM (inactive), the GI50 [11] was > 100 µM (inactive) and the GI50 [12] was > 100 µM (inactive). The GI50 [13] was > 100 µM (inactive), the GI50 [14] was > 100 µM (inactive) and the GI50 [15] was > 100 µM (inactive). For the same compound, the GI50 [16] was > 100 µM (inactive), the GI50 [17] was 46.2 µM (inactive) and the GI50 [18] was > 100 µM (inactive). For the same compound, the GI50 [19] was > 100 µM (inactive) and the GI50 [20] was > 100 µM (inactive).
